In patent US8975417B2, “Pyrazolopyrrolidine derivatives and their use in the treatment of disease” (Novartis AG, priority 2013, dated 2015):

Legend:
His-Brd3(20-477) = His-Brd3(20-477) (Homo sapiens (Human), UniProt Q15059); experiment: TR-FRET in-vitro binding assay for BRD3; conditions: biochemical
In short: (§1)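 Eight-point dilution series tested against in-house His-BRD2(60-472), BRD3(20-477) or BRD4(44-477) (45 nM in dispensed solution) binding acetyl-histone H4 (AcK5,8,12,16; 60 nM in dispensed solution). Incubation 35 min at 30 °C, pH 7.5 HEPES buffer; detection by TR-FRET using Eu-anti-His6 and streptavidin-allophycocyanin.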

His-Brd4(44-477) = His-Brd4(44-477) (Homo sapiens (Human), UniProt O60885); experiment: TR-FRET in-vitro binding assay for BRD4; conditions: biochemical
In short: as §1

MV-4-11 cells = experiment: Cell growth inhibition assay (CellTiter-Glo), MV-4-11; assay type: cell-based; conditions: Homo sapiens, MV4-11, read-out: MV-4-11 TGI
Description: (§2) Cell Growth Inhibition Assay
(§3) The human leukemia cell lines MV-4-11, THP-1 and K-562 were employed to characterize the effect of BET inhibitors on cellular proliferation and viability. Cells were obtained from the American Type Culture Collection (ATCC) and cultured at 37° C. in a humidified 5% CO2 incubator in the following media: MV-4-11: DMEM high glucose (Animed #1-26F01-I), 10% FCS (Animed #2-01F26-I), 4 mM L-Glutamine (Animed #5-10K50), 1 mM Sodium Pyruvate (Animed # G03625P), 1× Penicillin-Streptomycin (Animed # F12478P); K-562: Iscove's MEM (Animed #1-28F16-I), 10% FCS (Animed #2-01F26-I), 4 mM L-Glutamine (Animed #5-10K50), 1× Penicillin-Streptomycin (Animed # F12478P); THP-1: RPMI-1640 (Animed #1-41F01-I), 10% FCS (Animed #2-01F26-I), 2 mM L-Glutamine (Animed #5-10K50), 10 mM HEPES (Animed #5-31F100), 1 mM Sodium Pyruvate (Animed # G03625P), 1× Penicillin-Streptomycin (Animed # F12478P). The AML lines MV-4-11 and THP-1 are very sensitive to BET inhibitors and show massive cell death upon BET inhibition (Zuber et al., Nature, 478 (2011), 524-8). Compound-mediated suppression of cell proliferation/viability was assessed by quantification of cellular ATP levels using the CellTiter-Glo (CTG) reagent (Promega). Briefly, cells were seeded in 20 μl fresh medium into 384-well plates, followed by addition of 5 μL medium containing compound dilutions at 5-fold their final intended concentration. Dose-response effects were assessed by 3-fold serial dilutions of the test compound, starting at 10 μM. Following incubation of the cells for days at 37° C. and 5% CO2, the effect of inhibitors on cell viability was quantified following addition of 20 μl CTG and luminescence quantification (integration time: 100 ms) as per vendor manual, using a correspondingly equipped Tecan M200 multi-mode platereader (TECAN, Switzerland). For data analysis, the assay background value determined in wells containing medium, but no cells, was subtracted from all data points. To enable differentiation of cytotoxic from cytostatic compounds, the number of viable cells is assessed relative to that observed at the time of compound addition using a separate cell plate (day 0). The effect of a particular test compound concentration on cell proliferation/viability is expressed as percentage of the background- and day 0-corrected luminescence reading obtained for cells treated with vehicle only (DMSO, 0.1% final concentration), which is set as 100%, whereas that luminescence reading for wells containing medium is set as −100%. Compound concentrations leading to half-maximal (IC50) and total growth inhibition (TGI) were determined using standard four parameter curve fitting.

[1] = target: His-CREBBP (1081-1197) bromodomain (Homo sapiens (Human), UniProt Q92793); experiment: AlphaScreen in-vitro binding assay for CREBBP; conditions: biochemical
In short: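 Ni-chelate acceptor and streptavidin donor beads (45 µg/mL each, in 50 mM HEPES pH 7.5, 150 mM NaCl, 0.02% BSA) were then added for 60 min at room temperature. IC50 came from 8-point non-linear regression.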

His-Brd2(60-472) = His-Brd2(60-472) (Homo sapiens (Human), UniProt P25440); experiment: TR-FRET in-vitro binding assay for BRD2; conditions: biochemical
In short: as §1

THP-1 cells = experiment: Cell growth inhibition assay (CellTiter-Glo), THP-1; assay type: cell-based; conditions: Homo sapiens, read-out: THP-1 TGI
Description: as §2, §3

K-562 cells = experiment: Cell growth inhibition assay (CellTiter-Glo), K-562; assay type: cell-based, human; conditions: Homo sapiens, K562, read-out: K-562 TGI
Description: as §2, §3

His-CREBBP (1081-1197) bromodomain, sequence (Q92793 1081-1197): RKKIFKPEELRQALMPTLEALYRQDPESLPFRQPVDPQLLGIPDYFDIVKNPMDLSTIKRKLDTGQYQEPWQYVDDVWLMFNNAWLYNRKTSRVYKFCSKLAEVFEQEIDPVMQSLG
His-Brd2(60-472), sequence (P25440 60-472): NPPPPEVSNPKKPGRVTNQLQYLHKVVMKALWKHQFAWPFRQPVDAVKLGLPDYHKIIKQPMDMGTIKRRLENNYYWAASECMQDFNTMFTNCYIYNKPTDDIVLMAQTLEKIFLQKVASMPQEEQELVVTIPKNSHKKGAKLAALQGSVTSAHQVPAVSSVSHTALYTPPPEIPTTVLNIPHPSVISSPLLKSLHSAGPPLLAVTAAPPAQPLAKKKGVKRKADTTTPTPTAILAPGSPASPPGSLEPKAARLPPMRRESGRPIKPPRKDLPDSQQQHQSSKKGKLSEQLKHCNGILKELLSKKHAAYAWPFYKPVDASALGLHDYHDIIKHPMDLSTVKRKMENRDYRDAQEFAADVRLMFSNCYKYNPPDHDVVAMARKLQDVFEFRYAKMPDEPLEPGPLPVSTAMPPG
His-Brd3(20-477), sequence (Q15059 20-477): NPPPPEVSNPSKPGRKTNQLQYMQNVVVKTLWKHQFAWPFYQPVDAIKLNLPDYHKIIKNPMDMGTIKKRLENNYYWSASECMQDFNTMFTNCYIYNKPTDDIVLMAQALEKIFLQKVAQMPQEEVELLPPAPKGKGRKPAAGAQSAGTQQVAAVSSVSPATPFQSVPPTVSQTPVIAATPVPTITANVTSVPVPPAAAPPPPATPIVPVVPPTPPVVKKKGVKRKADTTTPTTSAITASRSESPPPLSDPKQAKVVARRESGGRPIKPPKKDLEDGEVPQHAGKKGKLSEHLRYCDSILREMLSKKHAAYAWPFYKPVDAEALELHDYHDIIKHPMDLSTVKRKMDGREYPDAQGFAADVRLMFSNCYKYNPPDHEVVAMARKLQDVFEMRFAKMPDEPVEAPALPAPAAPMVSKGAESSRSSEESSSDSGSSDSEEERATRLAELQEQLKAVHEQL

| SMILES | IC50 (His-Brd3(20-477)) | IC50 (His-Brd4(44-477)) | IC (total growth inhibition) (MV-4-11 cells) | IC50 [1] | IC50 (His-Brd2(60-472)) | IC (total growth inhibition) (THP-1 cells) | IC (total growth inhibition) (K-562 cells) |
| --- | --- | --- | --- | --- | --- | --- | --- |
| COc1ncc(-n2nc3c(c2C(C)C)[C@@H](c2ccc(Cl)cc2)N(c2cc(C)c4onc(C)c4c2)C3=O)c(OC)n1 [Example 62, (R)-4-(4-chlorophenyl)-2-(2,4-dimethoxypyrimidin-5-yl)-5-(3,7-dimethylbenzo[d]-isoxazol-5-yl)-3-isopropyl-4,5-dihydropyrrolo[3,4-c]pyrazol-6(2H)-one] | 72 nM | 67 nM | 0.105 µM | 1700 nM | 60 nM | 0.174 µM | > 10 µM |
| COc1ncccc1-n1nc(C)c2c1C(=O)N(c1cc(C)c3nnc(C)n3c1)C2c1ccc(F)cc1F (stereo not shown) [Example 173, 4-(2,4-difluorophenyl)-5-(3,8-dimethyl-[1,2,4]triazolo[4,3-a]pyridin-6-yl)-1-(2-methoxypyridin-3-yl)-3-methyl-4,5-dihydropyrrolo[3,4-c]pyrazol-6(1H)-one] | 87 nM | 58 nM | 0.139 µM | > 37000 nM | 79 nM | 0.282 µM | > 10 µM |
| Cc1nn(C(C)C)c2c1C(c1ccc(Cl)cc1F)N(c1cc(C)c3nnc(C)n3c1)C2=O (stereo not shown) [Example 168, 4-(4-chloro-2-fluorophenyl)-5-(3,8-dimethyl-[1,2,4]triazolo[4,3-a]pyridin-6-yl)-1-isopropyl-3-methyl-4,5-dihydropyrrolo[3,4-c]pyrazol-6(1H)-one] | 30 nM | 59 nM | 0.0403 µM | 11000 nM | 71 nM | 0.0949 µM | > 10 µM |
| Cc1nn(C2CC2)c2c1C(c1ccc(Cl)cc1)N(c1cc(C)c3nnc(C(F)F)n3n1)C2=O (stereo not shown) [Example 195, 4-(4-chlorophenyl)-1-cyclopropyl-5-(3-(difluoromethyl)-8-methyl-[1,2,4]triazolo[4,3-b]pyridazin-6-yl)-3-methyl-4,5-dihydropyrrolo[3,4-c]pyrazol-6(1H)-one] | 16 nM | < 11 nM | 0.0452 µM | > 37000 nM | 20 nM | 0.0804 µM | > 10 µM |
| Cc1cc(N2C(=O)c3nn(C(C)C)c(C)c3C2c2ccc(F)cc2F)cn2c(C)nnc12 (stereo not shown) [Example 175, 4-(2,4-difluorophenyl)-5-(3,8-dimethyl-[1,2,4]triazolo[4,3-a]pyridin-6-yl)-2-isopropyl-3-methyl-4,5-dihydropyrrolo[3,4-c]pyrazol-6(2H)-one] | 37 nM | 34 nM | 0.0867 µM | 13000 nM | 72 nM | 0.131 µM | > 10 µM |
| Cc1nn(C2CC2)c2c1C(c1ccc(Cl)cc1F)N(c1cc(C)c(=O)n(C)c1)C2=O (stereo not shown) [Example 179, 4-(4-chloro-2-fluorophenyl)-1-cyclopropyl-5-(1,5-dimethyl-6-oxo-1,6-dihydropyridin-3-yl)-3-methyl-4,5-dihydropyrrolo[3,4-c]pyrazol-6(1H)-one] | 90 nM | 95 nM | 0.12 µM | 3900 nM | 92 nM | 0.272 µM | > 10 µM |
| Cc1nn(C2CC2)c2c1C(c1ccc(Cl)cc1F)N(c1cc(C)c3nnc(C)n3c1)C2=O (stereo not shown) [Example 178, 4-(4-chloro-2-fluorophenyl)-1-cyclopropyl-5-(3,8-dimethyl-[1,2,4]triazolo[4,3-a]pyridin-6-yl)-3-methyl-4,5-dihydropyrrolo[3,4-c]pyrazol-6(1H)-one] | 62 nM | 66 nM | 0.0491 µM | 32000 nM | 68 nM | 0.107 µM | > 10 µM |
